Laboratory results reported in ChEMBL document CHEMBL1777763, “Discovery of a nortropanol derivative as a potent and orally active GPR119 agonist for type 2 diabetes” (Bioorg Med Chem Lett, 2011).

Target: T1, Glucose-dependent insulinotropic receptor (Mus musculus) (UniProt Q7TQP3)
T1 sequence (whole entry): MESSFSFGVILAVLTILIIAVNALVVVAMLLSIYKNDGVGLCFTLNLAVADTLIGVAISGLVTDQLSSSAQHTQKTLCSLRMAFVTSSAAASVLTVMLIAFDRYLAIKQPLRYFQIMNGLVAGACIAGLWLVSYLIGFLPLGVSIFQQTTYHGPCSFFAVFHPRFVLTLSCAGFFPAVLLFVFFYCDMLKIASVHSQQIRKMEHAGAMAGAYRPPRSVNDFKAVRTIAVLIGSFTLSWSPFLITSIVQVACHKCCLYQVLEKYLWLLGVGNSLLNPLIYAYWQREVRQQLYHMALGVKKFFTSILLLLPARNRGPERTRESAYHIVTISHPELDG
Assay: Agonist activity at mouse GPR119 expressed in HEK293 cells assessed as maximal stimulation of cMAP level by cell-based cAMP assay relative to 21
Assay type: functional
Conditions: not given

SMILES | Activity
Cc1c(Nc2ccc(S(C)(=O)=O)cc2F)ncnc1O[C@H]1CC2CC[C@@H](C1)N2S(=O)(=O)C1CC1 (single isomer, unassigned) | 88%
Cc1c(Oc2ccc(Cl)cc2C#N)ncnc1O[C@H]1CC2CC[C@@H](C1)N2S(=O)(=O)C1CC1 (single isomer, unassigned) | 44%
Cc1ncccc1Nc1ncnc(O[C@H]2CC3CC[C@@H](C2)N3S(=O)(=O)C2CC2)c1C (single isomer, unassigned) | 110%
Cc1c(Nc2ccccc2C#N)ncnc1O[C@H]1CC2CC[C@@H](C1)N2S(=O)(=O)C1CC1 (single isomer, unassigned) | 80%
Cc1c(Nc2ccc(F)cc2C#N)ncnc1O[C@H]1CC2CC[C@@H](C1)N2S(=O)(=O)C1CC1 (single isomer, unassigned) | 110%
Cc1c(Nc2ccc(C#N)cc2F)ncnc1O[C@H]1CC2CC[C@@H](C1)N2S(=O)(=O)C1CC1 (single isomer, unassigned) | 84%
Cc1ncccc1Oc1ncnc(O[C@H]2CC3C=C[C@@H](C2)N3C(=O)OC(C)C)c1C (single isomer, unassigned) | 48%

Now from value to molecule:

Activity | SMILES
62% | Cc1ncccc1Oc1ncnc(O[C@H]2CC3CC[C@@H](C2)N3S(=O)(=O)CCC(F)(F)F)c1C (single isomer, unassigned)
69% | Cc1ncccc1Oc1ncnc(O[C@H]2CC3CC[C@@H](C2)N3S(=O)(=O)CC(C)C)c1C (single isomer, unassigned)
77% | Cc1ncccc1Oc1ncnc(O[C@H]2CC3CC[C@@H](C2)N3S(=O)(=O)c2ccc(Cl)s2)c1C (single isomer, unassigned)
78% | Cc1ncccc1Oc1ncnc(O[C@H]2CC3CC[C@@H](C2)N3S(=O)(=O)c2ccc(F)cc2)c1C (single isomer, unassigned)
58% | Cc1c(Oc2ccccc2Cl)ncnc1O[C@H]1CC2CC[C@@H](C1)N2S(=O)(=O)C1CC1 (single isomer, unassigned)
74% | Cc1c(Oc2ccccc2C#N)ncnc1O[C@H]1CC2CC[C@@H](C1)N2S(=O)(=O)C1CC1 (single isomer, unassigned)
78% | Cc1ncccc1Oc1ncnc(O[C@H]2CC3C=C[C@@H](C2)N3S(=O)(=O)C2CC2)c1C (single isomer, unassigned)
20% | Cc1ncccc1Oc1ncnc(O[C@@H]2CC3CC[C@@H](C2)N3C(=O)OC(C)(C)C)c1C (single isomer, unassigned; 20f)

Test system: Mus musculus
Assay: Antidiabetic activity in overnight fasted mouse model assessed as blood glucose level at 3 mg/kg, po followed by 30 mins after administered 3 g/kg, po glucose by oral glucose tolerance test (reference value: 100 %)
Assay type: functional
Conditions: not given

SMILES | Blood glucose (% of vehicle)
Cc1c(Oc2ccccc2C#N)ncnc1O[C@H]1CC2CC[C@@H](C1)N2S(=O)(=O)C1CC1 (single isomer, unassigned) | 88%
Cc1c(Nc2ccc(C#N)cc2F)ncnc1O[C@H]1CC2CC[C@@H](C1)N2S(=O)(=O)C1CC1 (single isomer, unassigned) | 95%

Test system: Rattus norvegicus
Assay: AUC (0 to 6 hrs) in rat at 10 mg/kg, po
Assay type: ADME, organism-based, Plasma
Set-up: time < 6 hr, dose 10 mg/kg, route oral
Conditions: in vivo

AUC | SMILES
0 µM·h | Cc1ncccc1Oc1ncnc(O[C@H]2CC3CC[C@@H](C2)N3S(=O)(=O)CC(C)C)c1C (single isomer, unassigned)
0.461 µM·h | Cc1c(Oc2ccccc2C#N)ncnc1O[C@H]1CC2CC[C@@H](C1)N2S(=O)(=O)C1CC1 (single isomer, unassigned)

Test system: not listed separately
Assay: Plasma concentration in mouse at 3 mg/kg, po after 1 hr
Assay type: ADME, organism-based
Set-up: dose 3 mg/kg, route oral
Conditions: not given

concentration at 1 h | SMILES
290 nM | Cc1c(Oc2ccccc2C#N)ncnc1O[C@H]1CC2CC[C@@H](C1)N2S(=O)(=O)C1CC1 (single isomer, unassigned)

Target: T2, Glucose-dependent insulinotropic receptor (Mus musculus, UniProt Q7TQP3)
T2 sequence (Q7TQP3 whole entry): T1 sequence (whole entry)
Assay: Agonist activity at mouse GPR119 expressed in HEK293 cells assessed as stimulation of cMAP level by cell-based cAMP assay
Assay type: functional
Conditions: not given

SMILES | EC50
Cc1c(Nc2ccc(S(C)(=O)=O)cc2F)ncnc1O[C@H]1CC2CC[C@@H](C1)N2S(=O)(=O)C1CC1 (single isomer, unassigned) | 640 nM
Cc1c(Oc2ccc(Cl)cc2C#N)ncnc1O[C@H]1CC2CC[C@@H](C1)N2S(=O)(=O)C1CC1 (single isomer, unassigned) | 290 nM
Cc1ncccc1Nc1ncnc(O[C@H]2CC3CC[C@@H](C2)N3S(=O)(=O)C2CC2)c1C (single isomer, unassigned) | 2000 nM
Cc1c(Nc2ccccc2C#N)ncnc1O[C@H]1CC2CC[C@@H](C1)N2S(=O)(=O)C1CC1 (single isomer, unassigned) | 180 nM
Cc1c(Nc2ccc(F)cc2C#N)ncnc1O[C@H]1CC2CC[C@@H](C1)N2S(=O)(=O)C1CC1 (single isomer, unassigned) | 820 nM
Cc1c(Nc2ccc(C#N)cc2F)ncnc1O[C@H]1CC2CC[C@@H](C1)N2S(=O)(=O)C1CC1 (single isomer, unassigned) | 220 nM
Cc1ncccc1Oc1ncnc(O[C@H]2CC3C=C[C@@H](C2)N3C(=O)OC(C)C)c1C (single isomer, unassigned) | 52 nM

Now from value to molecule:

EC50 | SMILES
250 nM | Cc1ncccc1Oc1ncnc(O[C@H]2CC3CC[C@@H](C2)N3S(=O)(=O)CCC(F)(F)F)c1C (single isomer, unassigned)
70 nM | Cc1ncccc1Oc1ncnc(O[C@H]2CC3CC[C@@H](C2)N3S(=O)(=O)CC(C)C)c1C (single isomer, unassigned)
145 nM | Cc1ncccc1Oc1ncnc(O[C@H]2CC3CC[C@@H](C2)N3S(=O)(=O)c2ccc(Cl)s2)c1C (single isomer, unassigned)
350 nM | Cc1ncccc1Oc1ncnc(O[C@H]2CC3CC[C@@H](C2)N3S(=O)(=O)c2ccc(F)cc2)c1C (single isomer, unassigned)
82 nM | Cc1c(Oc2ccccc2Cl)ncnc1O[C@H]1CC2CC[C@@H](C1)N2S(=O)(=O)C1CC1 (single isomer, unassigned)
68 nM | Cc1c(Oc2ccccc2C#N)ncnc1O[C@H]1CC2CC[C@@H](C1)N2S(=O)(=O)C1CC1 (single isomer, unassigned)
240 nM | Cc1ncccc1Oc1ncnc(O[C@H]2CC3C=C[C@@H](C2)N3S(=O)(=O)C2CC2)c1C (single isomer, unassigned)
300 nM | Cc1ncccc1Oc1ncnc(O[C@@H]2CC3CC[C@@H](C2)N3C(=O)OC(C)(C)C)c1C (single isomer, unassigned; 20f)
